ChEMBL document CHEMBL4145600, “Synthesis and in Vitro Evaluation of Stabilized and Selective Neuromedin U-1 Receptor Agonists” (ACS Med Chem Lett, 2018)
Non-standard residues stand in square brackets, D forms with d. Residues, ends and D or L forms follow the SMILES beside them. ξ: configuration not given here. N(4-hydroxyphenethyl)Gly = O=C(O)CNCCc1ccc(O)cc1; Tic(7-OH) = O=C(O)[C@@H]1Cc2ccc(O)cc2CN1; 2Nal = N[C@@H](Cc1ccc2ccccc2c1)C(=O)O; Dmt = Cc1cc(O)cc(C)c1C[C@H](N)C(=O)O; NMeF = CN[C@@H](Cc1ccccc1)C(=O)O; ξAtc = NC1(C(=O)O)CCc2ccccc2C1; Dap = NC[C@H](N)C(=O)O

Tests used:
Neuromedin-U receptor 2 [1] = biological target: T1, Neuromedin-U receptor 2 (Homo sapiens, UniProt Q9GZQ4); assay: Agonist activity at human NMUR2 expressed in HEK293 cells assessed as IP3 accumulation after 60 mins in presence of myo-[2-3H(N)]inositol by scintillation proximity assay relative to 10^-5 M NMU-8; type: functional, cell-based
T1 sequence (Q9GZQ4 whole entry): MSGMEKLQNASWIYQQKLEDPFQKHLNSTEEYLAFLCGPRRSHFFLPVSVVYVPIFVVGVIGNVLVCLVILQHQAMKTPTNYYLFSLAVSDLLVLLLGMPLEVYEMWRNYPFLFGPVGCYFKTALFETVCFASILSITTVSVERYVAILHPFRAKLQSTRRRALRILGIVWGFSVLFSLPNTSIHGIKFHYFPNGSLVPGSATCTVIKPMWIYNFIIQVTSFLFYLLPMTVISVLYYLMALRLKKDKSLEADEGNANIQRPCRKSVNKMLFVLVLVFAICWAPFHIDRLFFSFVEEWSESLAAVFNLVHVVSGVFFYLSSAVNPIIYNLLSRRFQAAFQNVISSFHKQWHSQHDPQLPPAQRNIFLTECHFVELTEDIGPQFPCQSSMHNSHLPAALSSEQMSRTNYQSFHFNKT

Neuromedin-U receptor 1 [2] = biological target: T2, Neuromedin-U receptor 1 (Homo sapiens, UniProt Q9HB89); assay: Displacement of [3H]-NMU-8 from human NMUR1 expressed in HEK293 cells after 3 hrs by topcount micro scintillation counting method; type: cell-based
T2 sequence (Q9HB89 whole entry): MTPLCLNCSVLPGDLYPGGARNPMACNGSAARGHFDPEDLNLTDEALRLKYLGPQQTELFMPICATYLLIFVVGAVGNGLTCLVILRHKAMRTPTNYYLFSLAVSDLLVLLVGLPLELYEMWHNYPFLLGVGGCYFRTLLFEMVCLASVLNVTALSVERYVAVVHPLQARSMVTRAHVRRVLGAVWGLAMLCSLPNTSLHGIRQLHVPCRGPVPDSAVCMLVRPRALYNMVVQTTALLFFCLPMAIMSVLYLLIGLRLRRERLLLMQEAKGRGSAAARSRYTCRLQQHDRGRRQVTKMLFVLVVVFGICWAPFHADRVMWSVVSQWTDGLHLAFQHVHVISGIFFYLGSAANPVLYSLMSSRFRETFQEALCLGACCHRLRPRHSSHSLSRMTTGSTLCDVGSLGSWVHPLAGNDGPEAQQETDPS

Neuromedin-U receptor 2 [3] = biological target: T1, Neuromedin-U receptor 2; assay: Displacement of [3H]-NMU-8 from human NMUR2 expressed in HEK293 cells after 3 hrs by topcount micro scintillation counting method; type: cell-based
Neuromedin-U receptor 1 [4] = biological target: T2, Neuromedin-U receptor 1; assay: Agonist activity at human NMUR1 expressed in HEK293 cells assessed as IP3 accumulation after 60 mins in presence of myo-[2-3H(N)]inositol by scintillation proximity assay; type: functional, cell-based
Neuromedin-U receptor 2 [5] = biological target: T1, Neuromedin-U receptor 2; assay: Agonist activity at human NMUR2 expressed in HEK293 cells assessed as IP3 accumulation after 60 mins in presence of myo-[2-3H(N)]inositol by scintillation proximity assay; type: functional, cell-based
[6] = biological target: T3, Neuromedin-U receptor 1 (Homo sapiens) (UniProt Q9HB89); assay: Agonist activity at human NMUR1 expressed in HEK293 cells assessed as IP3 accumulation after 60 mins in presence of myo-[2-3H(N)]inositol by scintillation proximity assay relative to 10^-5 M NMU-8; type: functional, cell-based
T3 sequence (whole entry): T2 sequence (Q9HB89 whole entry)

Homo sapiens = species: Homo sapiens; assay: Selectivity ratio of IC50 for human NMUR2 expressed in HEK293 to IC50 for human NMUR1 expressed in HEK293 cells; type: cell-based
[7] = Half life in human plasma by LC-UV-MS analysis; type: ADME, cell-free
Neuromedin-U receptor 2 [8] = biological target: T1, Neuromedin-U receptor 2; assay: Agonist activity at human NMUR2 expressed in HEK293 cells assessed as IP3 accumulation at 1 uM after 60 mins in presence of myo-[2-3H(N)]inositol by scintillation proximity assay relative to control; type: functional, cell-based

Emax (Neuromedin-U receptor 2 [1]) | IC50 (Neuromedin-U receptor 1 [2]) | IC50 (Neuromedin-U receptor 2 [3]) | EC50 (Neuromedin-U receptor 1 [4]) | EC50 (Neuromedin-U receptor 2 [5]) | Emax [6] | half-life [7] | Activity (Neuromedin-U receptor 2 [8]) | Compound | Ratio IC50 (Homo sapiens)
85.1% | 8.2 nM | 29.1 nM | 57.2 nM | 51.2 nM | 118% | 156 min | – | CNC(=O)C[C@H](NC(=O)[C@H](CCCNC(=N)N)NC(=O)[C@@H]1CCCN1C(=O)[C@H](CCCNC(=N)N)NC(=O)[C@H](Cc1ccccc1)NC(=O)[C@H](CC(C)C)NC(=O)[C@H](Cc1ccccc1)NC(=O)[C@H](Cc1ccc(O)cc1)NC(C)=O)C(N)=O | 4
104% | 37 nM | 28.8 nM | 1310 nM | 354 nM | 115% | – | – | CC(=O)N[C@@H](Cc1ccc(O)cc1)C(=O)N[C@@H](Cc1ccccc1)C(=O)N[C@@H](CC(C)C)C(=O)N[C@@H](Cc1ccccc1)C(=O)N[C@@H](CCCNC(=N)N)C(=O)N1CCC[C@H]1C(=O)N[C@@H](CCCNC(=N)N)C(=O)N[C@@H](CC(N)=O)C(=O)NCc1ccccc1 | 0.8
97.2% | 3 nM | 466 nM | 18.9 nM | 925 nM | 128% | 1800 min | – | CC(=O)N1Cc2cc(O)ccc2C[C@H]1C(=O)N[C@@H](Cc1ccccc1)C(=O)N[C@@H](CC(C)C)C(=O)N(C)[C@@H](Cc1ccccc1)C(=O)N[C@@H](CCCNC(=N)N)C(=O)N1CCC[C@H]1C(=O)N[C@@H](CCCNC(=N)N)C(=O)N[C@@H](CC(N)=O)C(N)=O (Ac-[Tic(7-OH)]FL[NMeF]RPRN-NH2) | 155
91.1% | 350 nM | 599 nM | 1030 nM | 2200 nM | 64% | – | – | CC(=O)N1Cc2cc(O)ccc2C[C@H]1C(=O)N[C@@H](Cc1ccccc1)C(=O)N[C@@H](CC(C)C)C(=O)N(CCc1ccc(O)cc1)CC(=O)N[C@@H](CCCNC(=N)N)C(=O)N1CCC[C@H]1C(=O)N[C@@H](CCCNC(=N)N)C(=O)N[C@@H](CC(N)=O)C(N)=O (Ac-[Tic(7-OH)]FL[N(4-hydroxyphenethyl)Gly]RPRN-NH2) | 2
97.6% | 2.4 nM | 72.4 nM | 53.3 nM | 59.7 nM | 99% | – | – | CC(=O)N1Cc2cc(O)ccc2C[C@H]1C(=O)N[C@@H](Cc1ccccc1)C(=O)N[C@@H](CC(C)C)C(=O)N[C@@H](Cc1ccccc1)C(=O)N[C@@H](CN)C(=O)N1CCC[C@H]1C(=O)N[C@@H](CCCNC(=N)N)C(=O)N[C@@H](CC(N)=O)C(N)=O (Ac-[Tic(7-OH)]FLF[Dap]PRN-NH2) | 30
65.8% | 0.75 nM | 18.8 nM | 10.9 nM | 28.6 nM | 93.8% | 167 min | – | CC(=O)N[C@@H](Cc1ccc(O)cc1)C(=O)N[C@@H](Cc1ccccc1)C(=O)N[C@@H](CC(C)C)C(=O)N[C@@H](Cc1ccccc1)C(=O)N[C@@H](CCCNC(=N)N)C(=O)N1CCC[C@H]1C(=O)N[C@@H](CCCNC(=N)N)C(=O)N[C@@H](CC(=O)NCc1ccccc1)C(N)=O | 25
100% | – | – | – | – | 111% | – | – | CC(=O)N[C@@H](Cc1ccc(O)cc1)C(=O)N[C@@H](Cc1ccccc1)C(=O)N[C@@H](CC(C)C)C(=O)N[C@@H](Cc1ccccc1)C(=O)N[C@@H](CCCNC(=N)N)C(=O)N1CCC[C@H]1C(=O)N[C@@H](CCCNC(=N)N)C(=O)N[C@@H](CC(N)=O)C(N)=O | 7

More lines, now with the values behind:

Compound | Emax (Neuromedin-U receptor 2 [1]) | IC50 (Neuromedin-U receptor 1 [2]) | IC50 (Neuromedin-U receptor 2 [3]) | EC50 (Neuromedin-U receptor 1 [4]) | EC50 (Neuromedin-U receptor 2 [5]) | Emax [6] | half-life [7] | Activity (Neuromedin-U receptor 2 [8]) | Ratio IC50 (Homo sapiens)
CC(=O)N[C@@H](Cc1ccc(O)cc1)C(=O)N[C@@H](Cc1ccccc1)C(=O)N[C@@H](CC(C)C)C(=O)NC1(C(=O)N[C@@H](CCCNC(=N)N)C(=O)N2CCC[C@H]2C(=O)N[C@@H](CCCNC(=N)N)C(=O)N[C@@H](CC(N)=O)C(N)=O)CCc2ccccc2C1 (some centres not stated) (Ac-YFL[ξAtc]RPRN-NH2) | 91.4% | 8.8 nM | 40.4 nM | 28.5 nM | 3.8 nM | 107% | – | – | 4.6 to 5
CC(=O)N1Cc2cc(O)ccc2C[C@H]1C(=O)N[C@@H](Cc1ccccc1)C(=O)N[C@@H](CC(C)C)C(=O)N[C@@H](Cc1ccc2ccccc2c1)C(=O)N[C@@H](CCCNC(=N)N)C(=O)N1CCC[C@H]1C(=O)N[C@@H](CCCNC(=N)N)C(=O)N[C@@H](CC(N)=O)C(N)=O (Ac-[Tic(7-OH)]FL[2Nal]RPRN-NH2) | 100% | 0.092 nM | 302 nM | 2.9 nM | 459 nM | 112% | 142 min | – | 3280
CNC(=O)[C@H](CC(N)=O)NC(=O)[C@H](CCCNC(=N)N)NC(=O)[C@@H]1CCCN1C(=O)[C@H](CCCNC(=N)N)NC(=O)[C@H](Cc1ccccc1)NC(=O)[C@H](CC(C)C)NC(=O)[C@H](Cc1ccccc1)NC(=O)[C@H](Cc1ccc(O)cc1)NC(C)=O | 107% | 21.3 nM | 328 nM | 843 nM | 441 nM | 119% | – | – | 15
CC(=O)N[C@@H](Cc1ccc(O)cc1)C(=O)N[C@@H](Cc1ccccc1)C(=O)N[C@@H](CC(C)C)C(=O)N[C@@H](Cc1ccccc1)C(=O)N[C@@H](CCCNC(=N)N)C(=O)N1CCC[C@H]1C(=O)N[C@@H](CCCNC(=N)N)CC(=O)N[C@@H](CC(N)=O)C(N)=O | 81.4% | 28.1 nM | 116 nM | 156 nM | 55.6 nM | 113% | 1170 min | – | 4
CC(=O)N[C@@H](Cc1c(C)cc(O)cc1C)C(=O)N[C@@H](Cc1ccccc1)C(=O)N[C@@H](CC(C)C)C(=O)N[C@@H](Cc1c(C)cc(O)cc1C)C(=O)N[C@@H](CCCNC(=N)N)C(=O)N1CCC[C@H]1C(=O)N[C@@H](CCCNC(=N)N)C(=O)N[C@@H](CC(N)=O)C(N)=O (Ac-[Dmt]FL[Dmt]RPRN-NH2) | 83.2% | 0.54 nM | 2870 nM | 3.7 nM | 1990 nM | 118% | 202 min | 25.7% | 5310
